Results on 20 compounds are retold here after article PMC2848589, “Raltegravir Is a Potent Inhibitor of XMRV, a Virus Implicated in Prostate Cancer and Chronic Fatigue Syndrome” (PLoS ONE, 2010).

Where two headings read alike, the source gives them in different places.

The test system of one data set is HIV-1LAI. The data set can be described thus: HIV-1 replication in PHA-stimulated peripheral blood mononuclear cells. As to conditions: Human immunodeficiency virus 1, PBMC; for EC50: read-out: HIV-1 in PBM cells EC50; for EC90: read-out: HIV-1 in PBM cells EC90. The data set is classed as cell-based. How it is done:
(§1) We tested a total of 45 compounds belonging to different classes of HIV-1 inhibitors, and a few inhibitors of viruses other than retroviruses, for their ability to inhibit XMRV replication in cultured cells. LNCaP and MCF-7 cells were chosen for their ability to support robust in vitro replication of XMRV. […] To determine if a reduction in viral release might be due to toxicity of the compound and not due to specific antiretroviral activity, cellular morphology was monitored every 24 h by microscopic examination, and an MTT [3-(4,5-dimethylthiazol-2-yl)-2,5-diphenyltetrazolium bromide] colorimetric assay was used to measure potential cytotoxicity produced by the compounds. Supernatants were collected every 24 h and assayed for viral release by measuring RT activity. […] For comparison purposes, all compounds evaluated in these studies were also tested against HIV-1LAI in primary human lymphocytes.
(§2) Each well was carefully monitored for signs of cellular toxicity due to the inhibitors by microscopic observation every 24 h. In addition, cell viability was measured using the CellTiter 96 AQueous One Solution cell proliferation assay according to the manufacturer (Promega, Madison, Wis). Viral release from the cells was assayed by measuring RT activity in the supernatant. For this, supernatant from each well was collected every 24 h and frozen at −20°C until it was analyzed by RT assay for viral release as described previously. In brief, oligo(dT)·poly(rA) primer-template assays were performed in the presence of radiolabeled [α-^32P]dTTP and Mn^2+. After incubating the viral supernatants with the RT reaction mix for 1 h at 37°C, samples were spotted onto DE81 DEAE cellulose paper (Whatman) and unincorporated label washed away with 2× SSC (1× SSC = 0.15 M NaCl and 0.015 M sodium citrate). […] Inhibition of viral release as measured on day 6 after inoculation was averaged over 3–5 experiments and plotted. The antiviral EC50 and cytotoxic concentrations (CC50,) was determined from the concentration–response curve using the median effect method. HIV-1 replication assays were performed as described previously using peripheral blood mononuclear cells (PBMC) obtained from the American Red Cross, Atlanta, GA, that were stimulated with phytohemagglutinin (PHA) for 72 hr.

Data set [1] in a line: Cytotoxicity in MCF-7 cells (MTT / CellTiter 96 AQueous One). The note with it: human. The data set is classed as cell-based, human. How it is done: as §1, §2
Data set [2] can be described thus: Cytotoxicity in PBM cells. The data set is classed as cell-based. The note with it: human, read-out: HIV-1 in PBM cells CC50. As to the method: as §2
For another data set, the system named is XMRV. Briefly: XMRV replication in MCF-7 cells (viral release by RT activity in supernatant). It counts as cell-based. As to conditions: for EC90 / EC50: MCF7, 144 h; for EC90: read-out: XMRV in MCF-7 cells EC90; for EC50: read-out: XMRV in MCF-7 cells EC50; for activity against XMRV (in words): tested up to 100 µM, Figure 1.
[3] abbreviates: MCF-7 cells, read-out: XMRV in MCF-7 cells CC50.
The mark [4] stands for this setting: peripheral blood mononuclear (PBM) cells.
Where [5] appears, read: XMRV-infected MCF-7 cells, RT activity in supernatant, day 6.

The EC50 is the concentration at which the effect is half-maximal. Usually EC90 stands for the point of the concentration-response curve where the effect stands at 90%. In general, CC50 refers to the concentration at which the toxic effect on the cells reaches its halfway point. For `COC(=O)N[C@H](C(=O)N[C@@H](Cc1ccccc1)[C@@H](O)CN(Cc1ccc(-c2ccccn2)cc1)NC(=O)[C@@H](NC(=O)OC)C(C)(C)C)C(C)(C)C` [Atazanavir], the concentration for a half-maximal effect (EC50) in the data set on HIV-1LAI is 0.0067 µM; in the data set with XMRV (setting [5]) it was 64.8 µM. Further, the EC90 in the data set with HIV-1LAI was 0.022 µM; with XMRV, more than 100 µM. Also, the CC50 in data set [1] (setting [3]) turned out to be 40.7 µM; in data set [2] (setting [4]), 27.2 µM.
In the case of `C=C1[C@H](CO)[C@@H](O)C[C@@H]1n1cnc2c(=O)[nH]c(N)nc21` [Entecavir (ETV), Entecavir], the figures for the half-maximal effective concentration (EC50) with HIV-1LAI and with XMRV were 2.1 µM and more than 100 µM, respectively. Moreover, the EC90 in the data set with HIV-1LAI was 16.3 µM; in the data set with XMRV, more than 100 µM. The CC50 in data set [1] was 93.3 µM; in data set [2] (setting [4]), 25.2 µM.
On to `Nc1nc(=O)n([C@@H]2CS[C@H](CO)O2)cc1F` [Emtricitabine [(-)-FTC], Emtricitabine], for which the 50% effective concentration (EC50) was 0.0066 µM in the data set on HIV-1LAI and more than 100 µM in the data set on XMRV. In addition, the EC90 is 0.052 µM with HIV-1LAI and more than 100 µM with XMRV. Further, the CC50 in data set [1] and in data set [2] (setting [4]) was more than 100 µM throughout. The “activity against XMRV (in words)” value in the data set on XMRV was “essentially inactive”.
Take `CCC[C@@]1(CCc2ccccc2)CC(O)=C([C@H](CC)c2cccc(NS(=O)(=O)c3ccc(C(F)(F)F)cn3)c2)C(=O)O1` [Tipranavir]: in the data set on HIV-1LAI, the concentration giving a half-maximal response (EC50) was found to be 0.035 µM and the EC90 worked out at 0.17 µM. Further, in data set [1] (setting [3]), the CC50 was determined as 75.6 µM. For the same compound, the cytotoxic concentration (CC50) in data set [2] (setting [4]) was more than 100 µM. In the data set on XMRV, the 50% effective concentration (EC50) is more than 100 µM, the EC90 was more than 100 µM and the “activity against XMRV (in words)” value is recorded as “essentially ineffective”.
Turning to `CC(C)CN(C[C@@H](O)[C@H](Cc1ccccc1)NC(=O)O[C@H]1CO[C@H]2OCC[C@H]21)S(=O)(=O)c1ccc(N)cc1` [Darunavir], in the data set with HIV-1LAI, the EC50 amounted to 0.0036 µM and the EC90 was determined as 0.0065 µM. In the data set with XMRV, the EC50 was more than 100 µM, the EC90 is more than 100 µM and the “activity against XMRV (in words)” value is on record as “essentially ineffective”.
For the compound `Nc1nc2c(ncn2COCCO)c(=O)[nH]1` [Acyclovir (ACV), Acyclovir], the half-maximal effective concentration (EC50) in the data set with HIV-1LAI and with XMRV was more than 100 µM each time. The 90% effect concentration (EC90) in the data set on HIV-1LAI and in the data set on XMRV was more than 100 µM each time. Moreover, the values for the cytotoxic concentration (CC50) in data set [1] and in data set [2] (setting [4]) were 77.6 µM and more than 100 µM, respectively.
As for `CN(C)c1ccc2nc3ccc(=[N+](C)C)cc-3sc2c1` [Methylene blue], the figures for the EC50 with HIV-1LAI and with XMRV were 0.024 µM and 0.42 µM, respectively. The EC90 is 0.5 µM in the data set on HIV-1LAI and 2.7 µM in the data set with XMRV. Further, the cytotoxic concentration (CC50) in data set [1] came out at 7.2 µM; in data set [2] (setting [4]) it was 6.1 µM.
`CC(O)(CS(=O)(=O)c1ccc(F)cc1)C(=O)Nc1ccc(C#N)c(C(F)(F)F)c1` (centres unmarked) [Bicalutamide] came in with a CC50 in data set [1] of 8.2 µM. Further, in the data set on XMRV, the 50% effective concentration (EC50) worked out at 53 µM and the EC90 came out at 63.2 µM.
Turning to `CC(C)(C)NC(=O)[C@@H]1C[C@@H]2CCCC[C@@H]2CN1C[C@@H](O)[C@H](Cc1ccccc1)NC(=O)[C@H](CC(N)=O)NC(=O)c1ccc2ccccc2n1` [Saquinavir], in the data set on HIV-1LAI, the concentration giving a half-maximal response (EC50) was 0.0064 µM and the EC90 was 0.021 µM. This compound came in with a CC50 in data set [1] of 53.7 µM. For the same compound, the 50% cytotoxic concentration (CC50) in data set [2] (setting [4]) stood at 26.7 µM. Besides, in the data set with XMRV, the EC50 was more than 100 µM, the EC90 was more than 100 µM and the “activity against XMRV (in words)” value is recorded as “essentially ineffective”.
`O=c1[nH]c(=O)n([C@H]2C[C@H](O)[C@@H](CO)O2)cc1I` [5-Iodo-2'-deoxyuridine (IdUrd), 5-Iodo-2'-deoxyuridine]: the EC50 in the data set with HIV-1LAI stood at 25.1 µM; in the data set on XMRV, 2.2 µM. Moreover, the concentration for an effect of 90% (EC90) was 38.9 µM with HIV-1LAI and more than 100 µM in the data set with XMRV. For the same compound, the cytotoxic concentration (CC50) came out at 7.3 µM in data set [1] and 85.1 µM in data set [2] (setting [4]). The “therapeutic index (TI, the ratio of CC50/EC50)” value in the data set with XMRV (XMRV, MCF-7 cells) is “low”.
`CC(C)c1nc(CN(C)C(=O)N[C@H](C(=O)N[C@@H](Cc2ccccc2)C[C@H](O)[C@H](Cc2ccccc2)NC(=O)OCc2cncs2)C(C)C)cs1` [Ritonavir]: the EC50 in the data set on HIV-1LAI amounted to 0.15 µM; with XMRV (setting [5]), 76.4 µM. For the same compound, the EC90 was 0.4 µM in the data set on HIV-1LAI and more than 100 µM in the data set with XMRV.
Turning to `Nc1nc(N)c2ncn([C@H]3CO[C@@H](CO)O3)c2n1` [Amdoxovir (DAPD, AMDX), Amdoxovir], in the data set with HIV-1LAI, the EC50 is 0.83 µM and the 90% effect concentration (EC90) came to 4.8 µM. The cytotoxic concentration (CC50) in data set [1] (setting [3]) is more than 100 µM. In data set [2] (setting [4]), the CC50 is more than 100 µM. For the same compound, in the data set with XMRV, the EC50 was more than 100 µM, the concentration for an effect of 90% (EC90) is more than 100 µM and the “activity against XMRV (in words)” value is “essentially inactive”.
With `Cc1cn([C@@H]2C[C@@H](O)[C@H](CO)O2)c(=O)[nH]c1=O` [Telbivudine (LdT), Telbivudine], the EC50 in the data set on HIV-1LAI and in the data set with XMRV was more than 100 µM throughout. Further, the EC90 in the data set with HIV-1LAI and in the data set on XMRV was more than 100 µM each time. For the same compound, the values for the cytotoxic concentration (CC50) in data set [1] and in data set [2] (setting [4]) were 88.3 µM and more than 100 µM, respectively.
As to `C[C@]12CC[C@H](O)CC1=CC[C@@H]1[C@@H]2CC[C@]2(C)C(=O)CC[C@@H]12` [Dehydroepiandrosterone (DHEA), Dehydroepiandrosterone], the EC50 in the data set on HIV-1LAI was 15.1 µM; in the data set with XMRV, 68.6 µM. For the same compound, the EC90 with HIV-1LAI is 71.2 µM; in the data set on XMRV it was more than 100 µM. Moreover, the half-maximal cytotoxic concentration (CC50) is 64.1 µM in data set [1] (setting [3]) and more than 100 µM in data set [2].
With `Nc1ncnc2c1ncn2[C@@H]1O[C@H](CO)[C@@H](O)[C@@H]1O` [Vidarabine (ara-A), Vidarabine], the EC50 in the data set on HIV-1LAI turned out to be 30.6 µM; with XMRV, 4.4 µM. For the same compound, the 90% effect concentration (EC90) in the data set with HIV-1LAI and in the data set on XMRV was more than 100 µM in each case. For the same compound, the results for the cytotoxic concentration (CC50) in data set [1] and in data set [2] (setting [4]) were 50.5 µM and more than 100 µM, respectively.
Turning to `Nc1nc(NC2CC2)c2ncn([C@H]3C=C[C@@H](CO)C3)c2n1` [Abacavir], the half-maximal effective concentration (EC50) was 0.17 µM in the data set on HIV-1LAI and more than 100 µM in the data set with XMRV. Further, the EC90 in the data set with HIV-1LAI was 1.7 µM; in the data set with XMRV, more than 100 µM. The 50% cytotoxic concentration (CC50) is 92.6 µM in data set [1] (setting [3]) and 92.9 µM in data set [2] (setting [4]).
For the compound `CCN(CC)CCCC(C)Nc1ccnc2cc(Cl)ccc12` (centres unmarked) [Chloroquine], in the data set on HIV-1LAI, the EC50 is 9 µM and the EC90 was 21.6 µM. In the data set with XMRV, the EC50 is 56.9 µM and the EC90 is more than 100 µM.
In the case of `C[C@H](Cn1cnc2c(N)ncnc21)OCP(=O)(O)O` [Tenofovir (TNV), Tenofovir], the figures for the EC50 with HIV-1LAI and in the data set with XMRV were 0.88 µM and 82.9 µM, respectively. Besides, the values for the EC90 in the data set with HIV-1LAI and in the data set on XMRV were 6.6 µM and more than 100 µM, respectively. The CC50 in data set [1] (setting [3]) is 79.6 µM; in data set [2] (setting [4]) it was more than 100 µM. Further, the “activity against XMRV (in words)” value in the data set on XMRV is “ineffective”.
Consider `CC(=O)Oc1ccccc1C(=O)O` [Aspirin], for which the EC50 in the data set with HIV-1LAI and in the data set with XMRV was more than 100 µM each time. Also, the 90% effect concentration (EC90) in the data set on HIV-1LAI and in the data set with XMRV was more than 100 µM throughout. The half-maximal cytotoxic concentration (CC50) in data set [1] (setting [3]) is 92.2 µM; in data set [2] (setting [4]), more than 100 µM.
For the compound `CC(C)=CCN1Cc2c(Cl)ccc3[nH]c(=S)n(c23)C[C@@H]1C` [TIBO analog, (4S)-8-Chloro-4-methyl-5-(3-methylbut-2-enyl)-3,4,5,6-tetrahydro-1H-[1], [3]diazepino[4,5,6-cd]indole-2(2aH)-thione], the “activity against XMRV (in words)” value with XMRV is reported as “did not demonstrate any major activity”.
